Data from US5596008A, “3,4-Diaryl substituted pyridines for the treatment of inflammation” (G. D. Searle & Co., priority 1995, dated 1997).
Read-outs that look alike come from different tables or passages of the source.

Experiments:
[1] = biological target: T1, COX-1 murine (Mus musculus, UniProt P22437); experiment: COX-1 activity in vitro (recombinant enzyme, PGE2 ELISA); assay type: biochemical; details: arachidonic acid 10 μM, pH 8.0, pre-incubation 10-20 min, read-out: COX-1 murine ID50
T1 construct: A 2.0 kb fragment containing the coding region of either human or murine COX-1; made in house; host or cells: SF9 insect cells (recombinant baculovirus, vector pVL1393)
T1 sequence (P22437 27-602): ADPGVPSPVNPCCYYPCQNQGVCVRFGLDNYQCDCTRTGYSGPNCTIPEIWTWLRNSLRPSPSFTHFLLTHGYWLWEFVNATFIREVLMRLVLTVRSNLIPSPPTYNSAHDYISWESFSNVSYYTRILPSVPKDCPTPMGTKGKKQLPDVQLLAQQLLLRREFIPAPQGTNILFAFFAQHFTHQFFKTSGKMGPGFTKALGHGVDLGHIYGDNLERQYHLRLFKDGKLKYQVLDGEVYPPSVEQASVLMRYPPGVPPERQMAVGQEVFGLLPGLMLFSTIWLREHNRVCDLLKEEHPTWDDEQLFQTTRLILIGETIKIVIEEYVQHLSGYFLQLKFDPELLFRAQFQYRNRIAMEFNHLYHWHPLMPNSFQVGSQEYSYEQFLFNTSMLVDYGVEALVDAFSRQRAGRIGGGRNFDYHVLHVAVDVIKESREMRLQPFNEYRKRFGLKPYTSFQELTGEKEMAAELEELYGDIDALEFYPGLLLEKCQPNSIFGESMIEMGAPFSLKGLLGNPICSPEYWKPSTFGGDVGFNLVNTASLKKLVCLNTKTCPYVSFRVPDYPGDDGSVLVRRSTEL
Procedure: (§1) Evaluation of COX-1 and COX-2 activity in vitro
(§2) The COX-2 inhibition activity of the compounds of this invention illustrated in the Examples was determined by the following methods.
(§3) a. Preparation of recombinant COX baculoviruses
(§4) Recombinant COX-1 and COX-2 were prepared as described by Gierse et al, [J. Biochem., 305, 479-84 (1995)]. A 2.0 kb fragment containing the coding region of either human or murine COX-1 or human or murine COX-2 was cloned into a BamH1 site of the baculovirus transfer vector pVL1393 (Invitrogen) to generate the baculovirus transfer vectors for COX-1 and COX-2 in a manner similar to the method of D. R. O'Reilly et al (Baculovirus Expression Vectors: A Laboratory Manual (1992)). Recombinant baculoviruses were isolated by transfecting 4 μg of baculovirus transfer vector DNA into SF9 insect cells (2×10^8) along with 200 ng of linearized baculovirus plasmid DNA by the calcium phosphate method. See M. D. Summers and G. E. Smith, A Manual of Methods for Baculovirus Vectors and Insect Cell Culture Procedures, Texas Agric. Exp. Station Bull. 1555 (1987). Recombinant viruses were purified by three rounds of plaque purification and high titer (10^7 -10^8 pfu/ml) stocks of virus were prepared. For large scale production, SF9 insect cells were infected in 10 liter fermentors (0.5×10^6 /ml) with the recombinant baculovirus stock such that the multiplicity of infection was 0.1. After 72 hours the cells were centrifuged and the cell pellet homogenized in Tris/Sucrose (50 mM: 25%, pH 8.0) containing 1% 3-[(3-cholamidopropyl)dimethylammonio]-1-propanesulfonate (CHAPS). The homogenate was centrifuged at 10,000×G for 30 minutes, and the resultant supernatant was stored at -80° C. before being assayed for COX activity.
(§5) b. Assay for COX-1 and COX-2 activity:
(§6) COX activity was assayed as PGE2 formed/μg protein/time using an ELISA to detect the prostaglandin released. CHAPS-solubilized insect cell membranes containing the appropriate COX enzyme were incubated in a potassium phosphate buffer (50 mM, pH 8.0) containing epinephrine, phenol, and heme with the addition of arachidonic acid (10 μM). Compounds were pre-incubated with the enzyme for 10-20 minutes prior to the addition of arachidonic acid. Any reaction between the arachidonic acid and the enzyme was stopped after ten minutes at 37° C./room temperature by transferring 40 μl of reaction mix into 160 μl ELISA buffer and 25 μM indomethacin. The PGE2 formed was measured by standard ELISA technology (Cayman Chemical).

[2] = biological target: T2, COX-2 murine (Mus musculus, UniProt Q05769); experiment: COX-2 activity in vitro (recombinant enzyme, PGE2 ELISA); assay type: biochemical
T2 construct: human or murine COX-2 was cloned into a BamH1 site of the baculovirus transfer vector pVL1393; made in house; host or cells: SF9 insect cells (recombinant baculovirus, vector pVL1393)
T2 sequence (Q05769 18-604): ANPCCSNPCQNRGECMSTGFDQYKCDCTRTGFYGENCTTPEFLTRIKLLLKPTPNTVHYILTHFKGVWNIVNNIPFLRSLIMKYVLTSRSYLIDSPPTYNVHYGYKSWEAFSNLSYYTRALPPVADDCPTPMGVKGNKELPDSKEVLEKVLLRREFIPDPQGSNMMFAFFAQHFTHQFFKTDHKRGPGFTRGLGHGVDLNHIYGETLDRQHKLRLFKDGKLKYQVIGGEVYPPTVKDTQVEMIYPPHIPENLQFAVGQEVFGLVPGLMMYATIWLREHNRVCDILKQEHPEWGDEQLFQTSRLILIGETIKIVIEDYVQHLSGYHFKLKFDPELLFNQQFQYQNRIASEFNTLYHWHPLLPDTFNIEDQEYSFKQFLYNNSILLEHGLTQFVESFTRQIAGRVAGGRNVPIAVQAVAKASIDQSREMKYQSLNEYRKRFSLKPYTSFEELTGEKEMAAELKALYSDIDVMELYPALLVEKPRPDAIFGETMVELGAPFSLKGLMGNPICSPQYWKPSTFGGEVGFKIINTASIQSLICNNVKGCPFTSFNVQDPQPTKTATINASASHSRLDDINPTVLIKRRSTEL
Procedure: as §1, §2, §3, §4, §5, §6

[3] = COX-2 murine, arachidonic acid 10 μM, pH 8.0, pre-incubation 10-20 min, read-out: COX-2 murine ID50

IC50 [1] | IC50 [2, 3] | Structure (SMILES) | IC50 [2]
300 nM | > 30000 nM | COc1cc(-c2ccc(S(C)(=O)=O)cc2)c(-c2ccc(F)cc2)c(C(F)(F)F)n1 [Example 1, 5-(4-Fluorophenyl)-2-methoxy-4-[4-(methylsulfonyl)phenyl]-6-(trifluoromethyl)pyridine] | –
300 nM | > 30000 nM | CCOc1cc(-c2ccc(S(C)(=O)=O)cc2)c(-c2ccc(F)cc2)c(C(F)(F)F)n1 [Example 2, 2-Ethoxy-5-(4-fluorophenyl)-4-[4-(methylsulfonyl)phenyl]-6-(trifluoromethyl)pyridine] | –
600 nM | > 100000 nM | CS(=O)(=O)c1ccc(-c2cc(Br)nc(C(F)(F)F)c2-c2ccc(F)cc2)cc1 [Example 4, 2-Bromo-5-(4-fluorophenyl)-4-[4-(methylsulfonyl)phenyl]-6-(trifluoromethyl)pyridine] | –

Structure (SMILES) | IC50 [1] | IC50 [2, 3] | IC50 [2]
C#CCOc1cc(-c2ccc(S(C)(=O)=O)cc2)c(-c2ccc(F)cc2)c(C(F)(F)F)n1 [Example 3, 5-(4-Fluorophenyl)-4-[4-(methylsulfonyl)phenyl]-2-(2-propynyloxy)-6-(trifluoromethyl)pyridine] | 200 nM | – | > 30000 nM
